Patent publication US20050220718A1, “Stable pharmaceutical solution formulations for pressurized metered dose inhalers” (Chiesi Farmaceutici S.p.A., priority 2004, published 2005)

Columns and labels:
[1] = Stability study of TA 2005 HFA 134a formulations with 0.1M hydrochloric acid, upright cans at 40° C. and 75% relative humidity; assay type: physicochemical; details: TA 2005 1 μg/63 μl, 15% w/w ethanol
Protocol: Two aluminum canisters having the internal surface coated with teflon and fitted with commercial valves having a 63 μl metering chamber were filled with the following formulations shown in Table 2. A stability study was carried out by storing the formulations in upright cans at 40° C. and 75% relative humidity.

[2] = Stability of TA 2005 + budesonide HFA 134a compositions with phosphoric acid, 40° C. and 75% relative humidity; assay type: physicochemical; details: TA 2005 1 μg + budesonide 200 μg/actuation, phosphoric acid 85% 0.0032 or 0.0064% w/w, 0.15% w/w water
Protocol: The two compositions containing TA 2005 and budesonide as active ingredients and two different concentrations of phosphoric acid as shown in Table 4 were prepared.
Volume of the valve: 63 μl; strength: TA 2005 1 μg+budesonide 200 μg/actuation; no. of actuations: 120 (34 overfilling doses).
The two active ingredients in the compositions were stable after three months storage at 40° C. and 75% relative humidity, giving residual percent amounts of at least 95% TA 2005 and about 100% of Budesonide.

[3] = Stability of acidified TA 2005-HFA 134a solutions in cans coated with a fluorocarbon polymer, stored upright at 50° C.; assay type: physicochemical
Protocol: Comparative Example 1 (corresponding to Example 7 of WO 01/89480). Stability of acidified TA 2005-HFA 134a solutions in cans coated with a fluorocarbon polymer.
(§1) A solution of TA 2005 (3.5 μg/50 μl) was prepared by dissolving 0.84 mg of the active ingredient in HFA 134a containing 12% w/w ethanol and 1.0% w/w of isopropyl myristate. pMDI coated cans containing 1.0, 1.4, and 1.8 μl of 0.08 M hydrochloric acid (corresponding respectively to an apparent pH of about 4.8, 3.2, and 2.9) were set down on storage, upright at 50° C., and samples taken for analysis of TA 2005 contents at appropriate intervals.
Each value is expressed as percent nominal drug concentration.

[4] = 4 μg per actuation, HCl stabilized, stored upright at 5° C., after nine months (WO 03/074025); cited from earlier work
[5] = Stability study of TA 2005 HFA 134a formulation with 15.2M phosphoric acid, upright and inverted cans at 40° C. and 75% relative humidity; assay type: physicochemical; details: TA 2005 1 μg/63 μl, 15% w/w ethanol, phosphoric acid 15.2M 0.001 to 0.0027% w/w
Protocol: The formulation of Table 3 (120 actuations canister, overage of 30 actuations) was filled in aluminum canisters having the internal surface coated with teflon and fitted with commercial valves having a 63 μl metering chamber. A stability study was carried out by storing the formulation in upright and inverted cans at 40° C. and 75% relative humidity.

[6] = Apparent pH (acidity function pH') of acidified TA 2005 solutions; assay type: physicochemical; details: TA 2005 3.5 μg/50 μl in HFA 134a
From the text: The attribution ‘apparent’ is used as pH is indeed characteristic of aqueous liquids where water is the dominant component (Mole Fraction >0.95). […] Although the Nernst equation with respect to EMF applies and the pH-meter glass electrode system will generate a variable milli-volt output according to proton concentration and vehicle polarity, the “pH” meter reading is not a true pH value. The meter reading represents an apparent pH or acidity function (pH′).
Rather concentrated, i.e., more than about 10 M, preferably more than about 12 M, and most preferably about 15 M phosphoric acid is used to adjust the apparent pH. In the examples that follow 85%, i.e., 15.2M phosphoric acid has been used. The amount of acid to be added to reach the desired apparent pH will be pre-determined in the model vehicle reported before
1.0 M hydrochloric acid was added incrementally to 50 ml of HFA 43-10MEE (Vertrel XF) containing 20% w/w ethanol and the pH′ was measured after each aliquot of acid.
as §1

[7] = HFA propellant and ethanol, conventional aluminum or plastic coated glass cans; 40° C., 75% relative humidity, one month (WO 99/65460); cited from earlier work

Row | SMILES | percent amount of TA 2005 after three months of storage ([1]; 0.1M HCl 0.018% w/w) [%] | percent amount of TA 2005 after three months of storage ([1]; 0.1M HCl 0.027% w/w) [%] | residual percent amount after three months storage [2] | TA 2005 content, percent nominal drug concentration, 50° C.; 22 days upright ([3]; 1.0 μl 0.08M HCl per can) [%] | TA 2005 content, percent nominal drug concentration, 50° C.; 83 days upright ([3]; 1.0 μl 0.08M HCl per can) [%] | TA 2005 content, percent nominal drug concentration, Initial ([3]; 1.0 μl 0.08M HCl per can, TA 2005 3.5 μg/50 μl, 12% w/w ethanol, 1.0% w/w isopropyl myristate) [%] | TA 2005 content, percent nominal drug concentration, 50° C.; 22 days upright ([3]; 1.4 μl 0.08M HCl per can) [%] | TA 2005 content, percent nominal drug concentration, 50° C.; 83 days upright ([3]; 1.4 μl 0.08M HCl per can) [%] | TA 2005 content, percent nominal drug concentration, Initial ([3]; 1.4 μl 0.08M HCl per can) [%] | TA 2005 content, percent nominal drug concentration, 50° C.; 22 days upright ([3]; 1.8 μl 0.08M HCl per can) [%] | TA 2005 content, percent nominal drug concentration, 50° C.; 83 days upright ([3]; 1.8 μl 0.08M HCl per can) [%] | TA 2005 content, percent nominal drug concentration, Initial ([3]; 1.8 μl 0.08M HCl per can) [%] | TA 2005 assay [4] | residual percent amount of TA 2005 after three months of storage [5] | apparent pH ([6]; 1.0 μl of 0.08 M hydrochloric acid per can) | apparent pH ([6]; 1.4 μl of 0.08 M hydrochloric acid per can) | apparent pH ([6]; 1.8 μl of 0.08 M hydrochloric acid per can) | loss of drug [7]
1 | COc1ccc(C[C@@H](C)NC[C@H](O)c2ccc(O)c3[nH]c(=O)ccc23)cc1.Cl [TA 2005, 8-hydroxy-5-[(1R)-1-hydroxy-2-[[(1R)-2-(4-methoxyphenyl)-1-methylethyl]amino]ethyl]-2(1H)-quinolinone hydrochloride] | 73 | 77 | at least 95% | 98.3 | 99.4 | 100.0 | 98.2 | 98.8 | 100.0 | 90.2 | 88.1 | 100.0 | higher than 95% | up to 98% | about 4.8 | ~3.2 | ~2.9 | –
2 | COc1ccc(C[C@@H](C)NC[C@H](O)c2ccc(O)c(NC=O)c2)cc1.COc1ccc(C[C@@H](C)NC[C@H](O)c2ccc(O)c(NC=O)c2)cc1.O=C(O)/C=C/C(=O)O [formoterol fumarate] | – | – | – | – | – | – | – | – | – | – | – | – | – | – | – | – | – | about 10%
